According to ChEMBL document CHEMBL1139533, “Structure-activity relationship studies of a series of antiviral and antibacterial aglycon derivatives of the glycopeptide antibiotics vancomycin, eremomycin, and dechloroeremomycin” (J Med Chem, 2005):
Converted amounts (≈) assume the structure as drawn.

Key:
[1] = test system: Moloney murine sarcoma virus; assay: Effective concentration against Moloney sarcoma virus; assay type: functional, organism-based, Viruses
Enterococcus faecium [2] = assay: Minimum inhibitory concentration against glycopeptide resistant enterococci 569 Enterococcus faecium; assay type: functional
[3] = test system: Human immunodeficiency virus 2; assay: Effective concentration against human immunodeficiency virus type 2; assay type: functional, organism-based
[4] = test system: Staphylococcus haemolyticus; assay: Minimum inhibitory concentration against 602 Staphylococcus haemolyticus; assay type: functional
[5] = test system: Staphylococcus epidermidis; assay: Minimum inhibitory concentration against 533 Staphylococcus epidermidis; assay type: functional
L1210 = assay: Cytostatic activity against L1210 cell line; assay type: functional, cell-based; conditions: Mus musculus
Staphylococcus aureus [6] = assay: Minimum inhibitory concentration against glycopeptide intermediate-resistant 3798 Staphylococcus aureus; assay type: functional
CCRF-CEM = assay: Cytostatic activity to the compound against CEM cell line; assay type: functional, cell-based; conditions: Homo sapiens
Staphylococcus aureus [7] = assay: Minimum inhibitory concentration against glycopeptide intermediate-resistant 3797 Staphylococcus aureus; assay type: functional
Enterococcus faecalis [8] = assay: Minimum inhibitory concentration against glycopeptide resistant enterococci 560 Enterococcus faecalis; assay type: functional
MOLT-4 = assay: Cytostatic activity to the compound against Molt4/C8 cell line; assay type: functional, cell-based; conditions: Homo sapiens
Enterococcus faecalis [9] = assay: Minimum inhibitory concentration against 559 glycopeptide susceptible enterococci Enterococcus faecalis; assay type: functional
C3H/3T3 = assay: Minimal cytotoxic concentration to cause an alteration in C3H/3T3 cell line morphology; assay type: functional; conditions: Mus musculus
Enterococcus faecium [10] = assay: Minimum inhibitory concentration against glycopeptide susceptible enterococci 568 Enterococcus faecium; assay type: functional
[11] = test system: Human immunodeficiency virus 1; assay: Effective concentration against human immunodeficiency virus type 1; assay type: functional, organism-based

| Compound | EC50 [1] [µM] | MIC (Enterococcus faecium [2]) [µg/mL] | EC50 [3] [µM] | MIC [4] [µg/mL] | MIC [5] [µg/mL] | IC50 (L1210) [µM] | MIC (Staphylococcus aureus [6]) [µg/mL] | IC50 (CCRF-CEM) [µM] | MIC (Staphylococcus aureus [7]) [µg/mL] | MIC (Enterococcus faecalis [8]) [µg/mL] | IC50 (MOLT-4) [µM] | MIC (Enterococcus faecalis [9]) [µg/mL] | MCC (C3H/3T3) [µg/mL] | MIC (Enterococcus faecium [10]) [µg/mL] | EC50 [11] [µM] |
| --- | --- | --- | --- | --- | --- | --- | --- | --- | --- | --- | --- | --- | --- | --- | --- |
| NCCCCCCCCCCNC(=O)[C@H]1NC(=O)[C@H]2NC(=O)[C@H](NC(=O)[C@@H]3NC(=O)[C@H](CC(N)=O)NC(=O)[C@H](N)[C@H](O)c4ccc(c(Cl)c4)Oc4cc3cc(c4O)Oc3ccc(cc3)[C@H]2O)c2ccc(O)c(c2)-c2c(O)cc(O)cc21 | > 4 | > 64 | ≥ 25 | > 32 | > 32 | ≥ 250 | > 32 | 124 | > 32 | > 64 | ≥ 250 | > 64 | 20 | > 64 | ≥ 25 |
| CN[C@H](CC(C)C)C(=O)N[C@H]1C(=O)N[C@@H](CC(N)=O)C(=O)N[C@H]2C(=O)N[C@H]3C(=O)N[C@H](C(=O)N[C@H](C(=O)O)c4cc(O)cc(O)c4-c4cc3ccc4O)[C@H](O)c3ccc(cc3)Oc3cc2cc(c3O)Oc2ccc(cc2Cl)[C@H]1O | > 100 | > 128 | ≥ 250 | 16 (≈ 14.4 µM) | 32 (≈ 28.8 µM) | > 500 | > 64 | > 500 | > 64 | > 128 | > 500 | 16 (≈ 14.4 µM) | > 100 | 32 (≈ 28.8 µM) | 50 |
| NC(=O)C[C@@H]1NC(=O)[C@H](N)[C@H](O)c2ccc(cc2)Oc2cc3cc(c2O)Oc2ccc(cc2)[C@@H](O)[C@@H]2NC(=O)[C@H](NC(=O)[C@@H]3NC1=O)c1ccc(O)c(c1)-c1c(O)cc(O)cc1[C@@H](C(=O)O)NC2=O | – | > 128 | – | > 128 | > 128 | – | > 128 | – | > 128 | > 128 | – | > 128 | – | > 128 | – |
| CN[C@H](CC(C)C)C(=O)N[C@H]1C(=O)N[C@@H](CC(N)=O)C(=O)N[C@H]2C(=O)N[C@H]3C(=O)N[C@H](C(=O)N[C@H](C(=O)NCC45CC6CC(CC(C6)C4)C5)c4cc(O)cc(O)c4-c4cc3ccc4O)[C@H](O)c3ccc(cc3)Oc3cc2cc(c3O)Oc2ccc(cc2Cl)[C@H]1O | 12 | 8 (≈ 6.37 µM) | 7 | 8 (≈ 6.37 µM) | 8 (≈ 6.37 µM) | 94 | 8 (≈ 6.37 µM) | 148 | 8 (≈ 6.37 µM) | 8 (≈ 6.37 µM) | 126 | 4 (≈ 3.18 µM) | 100 | 8 (≈ 6.37 µM) | 1.6 |
| NC(=O)C[C@@H]1NC(=O)[C@H](N)[C@H](O)c2ccc(cc2)Oc2cc3cc(c2O)Oc2ccc(cc2)[C@@H](O)[C@@H]2NC(=O)[C@H](NC(=O)[C@@H]3NC1=O)c1ccc(O)c(c1)-c1c(O)cc(O)cc1[C@@H](C(=O)NCC13CC4CC(CC(C4)C1)C3)NC2=O | 2.6 | > 64 | 25.7 | > 32 | > 32 | > 250 | > 32 | ≥ 250 | > 32 | > 64 | ≥ 250 | > 64 | 100 | > 64 | 30 |
| NC(=O)C[C@@H]1NC(=O)[C@H](N)[C@H](O)c2ccc(c(Cl)c2)Oc2cc3cc(c2O)Oc2ccc(cc2)[C@@H](O)[C@@H]2NC(=O)[C@H](NC(=O)[C@@H]3NC1=O)c1ccc(O)c(c1)-c1c(O)cc(O)cc1[C@@H](C(=O)NCC13CC4CC(CC(C4)C1)C3)NC2=O | – | > 64 | 3.5 | > 32 | > 32 | 175 | > 32 | > 250 | > 32 | > 64 | > 250 | > 64 | – | > 64 | 5.5 |
| CN[C@H](CC(C)C)C(=O)N[C@H]1C(=O)N[C@@H](CC(N)=O)C(=O)N[C@H]2C(=O)N[C@H]3C(=O)N[C@H](C(=O)N[C@H](C(=O)NCCCCCCCCCCN)c4cc(O)cc(O)c4-c4cc3ccc4O)[C@H](O)c3ccc(c(Cl)c3)Oc3cc2cc(c3O)Oc2ccc(cc2Cl)[C@H]1O [listing 1 of 2 here] | 5 | – | 18.3 | – | – | > 250 | – | ≥ 250 | – | – | 228 | – | – | – | 2.5 |
| CN[C@H](CC(C)C)C(=O)N[C@H]1C(=O)N[C@@H](CC(N)=O)C(=O)N[C@H]2C(=O)N[C@H]3C(=O)N[C@H](C(=O)N[C@H](C(=O)NCCCCCCCCCCN)c4cc(O)cc(O)c4-c4cc3ccc4O)[C@H](O)c3ccc(c(Cl)c3)Oc3cc2cc(c3O)Oc2ccc(cc2Cl)[C@H]1O [listing 2 of 2 here] | – | 16 (≈ 12.3 µM) | – | 1 (≈ 0.77 µM) | 2 (≈ 1.54 µM) | – | 2 (≈ 1.54 µM) | – | 2 (≈ 1.54 µM) | 16 (≈ 12.3 µM) | – | 0.5 (≈ 0.385 µM) | ≥ 20 | 2 (≈ 1.54 µM) | – |
